According to PubChem BioAssay (NCI):
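Growth conditions: 96-well plates. Treatment: test compound, 48 hours, 5 concentrations. Analysis: linear interpolation between bracketing concentrations; unreached endpoints set to highest concentration. Here, GI50 denotes the concentration required for 50% inhibition of growth. TGI: concentration producing complete growth inhibition.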

Experiments:
Assay in all cases: NCI anticancer screen, dose series, 48 h
COLO 205 colon = test system: COLO 205 colon
MOLT-4 leukemia = test system: MOLT-4 leukemia
SR leukemia = test system: SR leukemia
HL-60(TB) leukemia = test system: HL-60(TB) leukemia
TK-10 renal = test system: TK-10 renal
IGROV1 ovarian = test system: IGROV1 ovarian
HT29 colon = test system: HT29 colon
NCI/ADR-RES ovarian = test system: NCI/ADR-RES ovarian
SK-OV-3 ovarian = test system: SK-OV-3 ovarian
SK-MEL-5 melanoma = test system: SK-MEL-5 melanoma
BT-549 breast = test system: BT-549 breast
KM12 colon = test system: KM12 colon
SNB-19 CNS = test system: SNB-19 CNS
OVCAR-8 ovarian = test system: OVCAR-8 ovarian
CAKI-1 renal = test system: CAKI-1 renal
DU-145 prostate = test system: DU-145 prostate
HCT-116 colon = test system: HCT-116 colon
U251 CNS = test system: U251 CNS
SNB-75 CNS = test system: SNB-75 CNS
UO-31 renal = test system: UO-31 renal
MDA-MB-468 breast = test system: MDA-MB-468 breast
SK-MEL-2 melanoma = test system: SK-MEL-2 melanoma
NCI-H522 lung = test system: NCI-H522 lung
SF-295 CNS = test system: SF-295 CNS
HCC-2998 colon = test system: HCC-2998 colon
HCT-15 colon = test system: HCT-15 colon
RPMI-8226 leukemia = test system: RPMI-8226 leukemia
HOP-92 NSCLC = test system: HOP-92 NSCLC
SF-539 CNS = test system: SF-539 CNS
EKVX NSCLC = test system: EKVX NSCLC
HS 578T breast = test system: HS 578T breast
K-562 leukemia = test system: K-562 leukemia
NCI-H23 lung = test system: NCI-H23 lung
OVCAR-3 ovarian = test system: OVCAR-3 ovarian
HOP-62 NSCLC = test system: HOP-62 NSCLC
LOX IMVI melanoma = test system: LOX IMVI melanoma
OVCAR-5 ovarian = test system: OVCAR-5 ovarian
OVCAR-4 ovarian = test system: OVCAR-4 ovarian
SW-620 colon = test system: SW-620 colon
SK-MEL-28 melanoma = test system: SK-MEL-28 melanoma
T-47D breast = test system: T-47D breast
ACHN renal = test system: ACHN renal
UACC-257 melanoma = test system: UACC-257 melanoma
NCI-H460 lung = test system: NCI-H460 lung
MALME-3M melanoma = test system: MALME-3M melanoma
MCF7 breast = test system: MCF7 breast
UACC-62 melanoma = test system: UACC-62 melanoma
NCI-H226 lung = test system: NCI-H226 lung
786-0 renal = test system: 786-0 renal
SN12C renal = test system: SN12C renal
SF-268 CNS = test system: SF-268 CNS
RXF 393 renal = test system: RXF 393 renal
A498 renal = test system: A498 renal
MDA-MB-435 = test system: MDA-MB-435
PC-3 prostate = test system: PC-3 prostate
CCRF-CEM leukemia = test system: CCRF-CEM leukemia
MDA-MB-231 breast = test system: MDA-MB-231 breast
M14 melanoma = test system: M14 melanoma
A549 NSCLC = test system: A549 NSCLC

`C/C(=C\CC/C=C(\C)CC/C=C(\C)CC[C@@H](O)C(C)(C)O)CC/C=C(\C)CC[C@@H](O)C(C)(C)O` was tested, and the GI50 (COLO 205 colon) was 17.8 µM, the TGI (COLO 205 colon) was 34.6 µM and the GI50 (MOLT-4 leukemia) was 14.4 µM. The TGI (MOLT-4 leukemia) was 44.6 µM, the GI50 (SR leukemia) was 18.5 µM and the TGI (SR leukemia) was 67.8 µM. It also gave a GI50 (HL-60(TB) leukemia) of 3.1 µM, a TGI (HL-60(TB) leukemia) of 11.2 µM and a GI50 (TK-10 renal) of 17.6 µM. For the same compound, the TGI (TK-10 renal) was 32.5 µM, the GI50 (IGROV1 ovarian) was 15.4 µM and the TGI (IGROV1 ovarian) was 29.2 µM. It also gave a GI50 (HT29 colon) of 12 µM, a TGI (HT29 colon) of 27.4 µM and a GI50 (NCI/ADR-RES ovarian) of 11.1 µM. The TGI (NCI/ADR-RES ovarian) was 23.6 µM, the GI50 (SK-OV-3 ovarian) was 15.8 µM and the TGI (SK-OV-3 ovarian) was 31 µM. The GI50 (SK-MEL-5 melanoma) was 5.06 µM, the TGI (SK-MEL-5 melanoma) was 17.4 µM and the GI50 (BT-549 breast) was 5.14 µM. The TGI (BT-549 breast) was 17.4 µM, the GI50 (KM12 colon) was 13.9 µM and the TGI (KM12 colon) was 27.3 µM. The GI50 (SNB-19 CNS) was 15 µM, the TGI (SNB-19 CNS) was 28.5 µM and the GI50 (OVCAR-8 ovarian) was 15 µM. It also gave a TGI (OVCAR-8 ovarian) of 34.8 µM, a GI50 (CAKI-1 renal) of 12.3 µM and a TGI (CAKI-1 renal) of 25.1 µM. The GI50 (DU-145 prostate) was 15.5 µM, the TGI (DU-145 prostate) was 29 µM and the GI50 (HCT-116 colon) was 6.39 µM. For the same compound, the TGI (HCT-116 colon) was 21.3 µM, the GI50 (U251 CNS) was 13.4 µM and the TGI (U251 CNS) was 38.1 µM. For the same compound, the GI50 (SNB-75 CNS) was 12.5 µM, the TGI (SNB-75 CNS) was 25 µM and the GI50 (UO-31 renal) was 7.71 µM. For the same compound, the TGI (UO-31 renal) was 20.7 µM, the GI50 (MDA-MB-468 breast) was 7.97 µM and the TGI (MDA-MB-468 breast) was 21.1 µM. For the same compound, the GI50 (SK-MEL-2 melanoma) was 14.4 µM, the TGI (SK-MEL-2 melanoma) was 30 µM and the GI50 (NCI-H522 lung) was 11 µM. For the same compound, the TGI (NCI-H522 lung) was 25.9 µM, the GI50 (SF-295 CNS) was 7.84 µM and the TGI (SF-295 CNS) was 20.9 µM. The GI50 (HCC-2998 colon) was 13.5 µM, the TGI (HCC-2998 colon) was 26.4 µM and the GI50 (HCT-15 colon) was 10.9 µM. For the same compound, the TGI (HCT-15 colon) was 22.8 µM, the GI50 (RPMI-8226 leukemia) was 3.74 µM and the TGI (RPMI-8226 leukemia) was 18.9 µM. It also gave a GI50 (HOP-92 NSCLC) of 10.2 µM, a TGI (HOP-92 NSCLC) of 23.9 µM and a GI50 (SF-539 CNS) of 13.1 µM. It also gave a TGI (SF-539 CNS) of 26.1 µM, a GI50 (EKVX NSCLC) of 7.68 µM and a TGI (EKVX NSCLC) of 20.5 µM. The GI50 (HS 578T breast) was 10.3 µM, the TGI (HS 578T breast) was 26.1 µM and the GI50 (K-562 leukemia) was 5.07 µM. It also gave a TGI (K-562 leukemia) greater than 100 µM, a GI50 (NCI-H23 lung) of 10.9 µM and a TGI (NCI-H23 lung) of 23.2 µM. For the same compound, the GI50 (OVCAR-3 ovarian) was 13.7 µM, the TGI (OVCAR-3 ovarian) was 26.7 µM and the GI50 (HOP-62 NSCLC) was 17 µM. For the same compound, the TGI (HOP-62 NSCLC) was 34.6 µM, the GI50 (LOX IMVI melanoma) was 13.4 µM and the TGI (LOX IMVI melanoma) was 26.4 µM. It also gave a GI50 (OVCAR-5 ovarian) of 14.5 µM, a TGI (OVCAR-5 ovarian) of 27.8 µM and a GI50 (OVCAR-4 ovarian) of 11 µM. It also gave a TGI (OVCAR-4 ovarian) of 23.4 µM, a GI50 (SW-620 colon) of 14.9 µM and a TGI (SW-620 colon) of 29.4 µM. The GI50 (SK-MEL-28 melanoma) was 12.6 µM, the TGI (SK-MEL-28 melanoma) was 25.4 µM and the GI50 (T-47D breast) was 7.75 µM. The TGI (T-47D breast) was 25 µM, the GI50 (ACHN renal) was 5.78 µM and the TGI (ACHN renal) was 18.3 µM. It also gave a GI50 (UACC-257 melanoma) of 10.7 µM, a TGI (UACC-257 melanoma) of 23.7 µM and a GI50 (NCI-H460 lung) of 11.3 µM. The TGI (NCI-H460 lung) was 24.5 µM, the GI50 (MALME-3M melanoma) was 12 µM and the TGI (MALME-3M melanoma) was 24.5 µM. It also gave a GI50 (MCF7 breast) of 6.7 µM, a TGI (MCF7 breast) of 20 µM and a GI50 (UACC-62 melanoma) of 9.71 µM. For the same compound, the TGI (UACC-62 melanoma) was 21.6 µM, the GI50 (NCI-H226 lung) was 12.6 µM and the TGI (NCI-H226 lung) was 27.3 µM. For the same compound, the GI50 (786-0 renal) was 10.8 µM, the TGI (786-0 renal) was 24.1 µM and the GI50 (SN12C renal) was 12.6 µM. It also gave a TGI (SN12C renal) of 25.3 µM, a GI50 (SF-268 CNS) of 13.6 µM and a TGI (SF-268 CNS) of 28.3 µM. The GI50 (RXF 393 renal) was 5.93 µM, the TGI (RXF 393 renal) was 20.1 µM and the GI50 (A498 renal) was 12.6 µM. For the same compound, the TGI (A498 renal) was 25.7 µM, the GI50 (MDA-MB-435) was 14.7 µM and the TGI (MDA-MB-435) was 28 µM. It also gave a GI50 (PC-3 prostate) of 5.16 µM, a TGI (PC-3 prostate) of 20.1 µM and a GI50 (CCRF-CEM leukemia) of 17.9 µM. The TGI (CCRF-CEM leukemia) was 39.7 µM, the GI50 (MDA-MB-231 breast) was 13.6 µM and the TGI (MDA-MB-231 breast) was 26.5 µM. The GI50 (M14 melanoma) was 10.4 µM, the TGI (M14 melanoma) was 23.1 µM and the GI50 (A549 NSCLC) was 10 µM. It also gave a TGI (A549 NSCLC) of 30.2 µM.
